Laboratory results as given in ChEMBL document CHEMBL1201862, “PubChem BioAssay data set” (2004).
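48-hour exposure; five concentrations; linearly interpolated endpoints. GI50 = concentration required for 50% inhibition of growth.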 Activity calls are given as the source filed them. Rule as the data show it: active = GI50 up to about 1.1 µM and inactive = higher.

Experiments:
Assay in all cases: NCI-60 cell line screen, 48 h
HOP-62 = test system: HOP-62
786-0 = test system: 786-0
MDA-N = test system: MDA-N
MOLT-4 = test system: MOLT-4
A498 = test system: A498
SK-MEL-2 = test system: SK-MEL-2
SK-MEL-28 = test system: SK-MEL-28
CCRF-CEM = test system: CCRF-CEM
RXF 393 = test system: RXF 393
LOX IMVI = test system: LOX IMVI
Malme-3M = test system: Malme-3M
OVCAR-8 = test system: OVCAR-8
SN12C = test system: SN12C
HT-29 = test system: HT-29
CAKI-1 = test system: CAKI-1
K562 = test system: K562
SF-295 = test system: SF-295
NCI/ADR-RES = test system: NCI/ADR-RES
HCT-15 = test system: HCT-15
ACHN = test system: ACHN

Row | SMILES | GI50 (HOP-62) | GI50 (786-0) | GI50 (MDA-N) | GI50 (MOLT-4) | GI50 (A498) | GI50 (SK-MEL-2) | GI50 (SK-MEL-28) | GI50 (CCRF-CEM) | GI50 (RXF 393) | GI50 (LOX IMVI) | GI50 (Malme-3M) | GI50 (OVCAR-8) | GI50 (SN12C) | GI50 (HT-29) | GI50 (CAKI-1) | GI50 (K562) | GI50 (SF-295) | GI50 (NCI/ADR-RES) | GI50 (HCT-15) | GI50 (ACHN)
1 | CC(C)(C)C(=O)CC1(O)C=C(O)C(O)(CC(=O)C(C)(C)C)O1 (centres undefined) | 15.5 µM (inactive) | 4.86 µM (inactive) | 43.2 µM (inactive) | 8.51 µM (inactive) | > 100 µM (inactive) | 38.7 µM (inactive) | 31.6 µM (inactive) | 6.46 µM (inactive) | 1.84 µM (inactive) | 12.5 µM (inactive) | 86.9 µM (inactive) | 23.6 µM (inactive) | 14.7 µM (inactive) | 18.7 µM (inactive) | 13.6 µM (inactive) | 54.8 µM (inactive) | 48.5 µM (inactive) | 20.9 µM (inactive) | 8.77 µM | 
2 | O=C(O)CSCC(=O)c1ccccc1 | > 100 µM (inactive) | > 100 µM (inactive) | > 100 µM (inactive) | > 100 µM (inactive) | > 100 µM (inactive) | > 100 µM (inactive) | > 100 µM (inactive) |  | > 100 µM (inactive) | > 100 µM (inactive) | > 100 µM (inactive) | > 100 µM (inactive) | > 100 µM (inactive) | > 100 µM (inactive) | > 100 µM (inactive) | > 100 µM (inactive) | > 100 µM (inactive) | > 100 µM (inactive) | > 100 µM | > 100 µM (inactive)
3 | COc1cc(C2c3cc4c(cc3[C@H](NC(=O)c3cccs3)C3COC(=O)[C@H]23)OCO4)cc(OC)c1OC (some centres undefined) | < 0.0144 µM (active) | < 0.0221 µM (active) | < 0.01 µM (active) | < 0.0149 µM (active) | 0.012 µM (active) | 34.1 µM (inactive) | 0.0708 µM (active) | < 0.0179 µM (active) | 0.0133 µM (active) | < 0.0107 µM (active) | 92.3 µM (inactive) | < 0.01 µM (active) | < 0.0187 µM (active) | 0.012 µM (active) |  | < 0.0156 µM (active) | < 0.01 µM (active) | 0.026 µM (active) | < 0.0214 µM | < 0.0174 µM (active)
4 | c1ccc(CCNCc2ccco2)nc1 | > 100 µM (inactive) | > 100 µM (inactive) | > 100 µM (inactive) | > 100 µM (inactive) | > 100 µM (inactive) | > 100 µM (inactive) | > 100 µM (inactive) | > 48.6 µM (inactive) | > 100 µM (inactive) | > 100 µM (inactive) | > 100 µM (inactive) | > 100 µM (inactive) | > 100 µM (inactive) | > 100 µM (inactive) | > 100 µM (inactive) |  | > 100 µM (inactive) | > 100 µM (inactive) | > 100 µM | > 100 µM (inactive)
5 | O=C(/C=C/c1ccc(O)c(O)c1)OCCc1ccc2ccccc2c1 | 13.2 µM (inactive) | 8.59 µM (inactive) | 2.38 µM (inactive) | 2.2 µM (inactive) | 15.2 µM (inactive) | 1.29 µM (inactive) | 9.14 µM (inactive) | 4.63 µM (inactive) | 9.46 µM (inactive) | 6.98 µM (inactive) | 10.9 µM (inactive) | 10.4 µM (inactive) | 5.26 µM (inactive) | 12.9 µM (inactive) |  | 2.99 µM (inactive) | 10.9 µM (inactive) | 4.08 µM (inactive) | 2.49 µM | 2.86 µM (inactive)
6 | CN(C)CCCn1cnc2cc(Cl)c(Cl)cc21 | > 100 µM (inactive) | 59.6 µM (inactive) | 34.1 µM (inactive) |  | > 100 µM (inactive) | > 100 µM (inactive) | 17.9 µM (inactive) | 55.7 µM (inactive) | 61.2 µM (inactive) | 59.2 µM (inactive) | > 100 µM (inactive) | > 100 µM (inactive) | 43.8 µM (inactive) | 72.3 µM (inactive) | 64.3 µM (inactive) | 67.3 µM (inactive) | > 100 µM (inactive) | > 100 µM (inactive) | > 100 µM | > 100 µM (inactive)
